In publication PMC8222254, “Self-assembly of an anion receptor with metal-dependent kinase inhibition and potent in vitro anti-cancer properties” (Nature Communications, 2021):
“And” between values parts separate entries of the source, which are not always exact repeats. Equal values may be shown once.

Columns and labels:
Test in all cases: Kinase inhibition screen, cell-free 33P ATP assay at 10 μM
Type in all cases: biochemical
[1] = molecular target: 140 purified human kinases (Homo sapiens, UniProt Q9BUB5)
Summary of the method: (§1)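 Radiometric ^33P ATP cell-free format with purified enzymes; both complexes run at 10 μM in duplicate, results plotted on a kinome map via HGNC symbols.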

[2] = molecular target: 140 purified human kinases (Homo sapiens, UniProt P00519); conditions: ABL
Summary of the method: as §1

[3] = molecular target: T1, 140 purified human kinases (Homo sapiens, UniProt Q9NWZ3)
T1 sequence (Q9NWZ3 1-460): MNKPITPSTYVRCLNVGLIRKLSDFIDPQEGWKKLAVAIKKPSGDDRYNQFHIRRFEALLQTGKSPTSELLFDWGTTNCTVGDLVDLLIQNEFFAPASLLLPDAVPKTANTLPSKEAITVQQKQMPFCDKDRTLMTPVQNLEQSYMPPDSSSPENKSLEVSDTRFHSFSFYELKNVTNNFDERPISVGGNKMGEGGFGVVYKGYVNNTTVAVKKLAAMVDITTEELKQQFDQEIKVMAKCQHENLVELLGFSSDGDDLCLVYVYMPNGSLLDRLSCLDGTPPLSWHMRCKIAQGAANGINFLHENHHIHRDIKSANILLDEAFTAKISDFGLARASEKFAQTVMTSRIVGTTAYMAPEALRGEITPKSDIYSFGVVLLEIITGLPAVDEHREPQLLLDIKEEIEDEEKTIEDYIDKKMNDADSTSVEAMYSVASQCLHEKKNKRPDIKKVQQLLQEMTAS
Summary of the method: as §1

[4] = molecular target: T2, 140 purified human kinases (Homo sapiens, UniProt Q8TDC3)
T2 sequence (Q8TDC3 1-778): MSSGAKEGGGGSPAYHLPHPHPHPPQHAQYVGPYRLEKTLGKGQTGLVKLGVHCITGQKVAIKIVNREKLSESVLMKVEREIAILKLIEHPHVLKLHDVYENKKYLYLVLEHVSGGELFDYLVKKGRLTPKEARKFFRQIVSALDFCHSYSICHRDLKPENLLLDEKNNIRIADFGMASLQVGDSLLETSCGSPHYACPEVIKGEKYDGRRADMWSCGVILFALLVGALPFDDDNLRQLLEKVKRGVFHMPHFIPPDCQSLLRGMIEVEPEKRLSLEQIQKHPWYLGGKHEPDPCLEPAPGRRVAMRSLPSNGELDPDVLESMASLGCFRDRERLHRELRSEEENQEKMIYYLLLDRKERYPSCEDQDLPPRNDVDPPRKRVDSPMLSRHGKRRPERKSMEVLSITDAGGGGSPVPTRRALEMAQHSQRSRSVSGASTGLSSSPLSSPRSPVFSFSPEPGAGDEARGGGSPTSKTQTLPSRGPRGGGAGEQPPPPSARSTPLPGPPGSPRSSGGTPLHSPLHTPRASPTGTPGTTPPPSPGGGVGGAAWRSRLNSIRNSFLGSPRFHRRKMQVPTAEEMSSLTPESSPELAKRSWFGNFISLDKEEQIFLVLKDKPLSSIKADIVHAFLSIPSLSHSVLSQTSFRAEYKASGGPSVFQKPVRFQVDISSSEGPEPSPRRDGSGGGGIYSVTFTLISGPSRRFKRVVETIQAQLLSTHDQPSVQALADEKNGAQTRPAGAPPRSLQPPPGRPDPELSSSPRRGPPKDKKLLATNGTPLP
Summary of the method: as §1

[5] = molecular target: 140 purified human kinases (Homo sapiens, UniProt Q13164)
Summary of the method: as §1

[6] = molecular target: 140 purified human kinases (Homo sapiens, UniProt Q9Y4K4)
Summary of the method: as §1

[7] = molecular target: 140 purified human kinases (Homo sapiens, UniProt P53355)
Summary of the method: as §1

[8] = molecular target: T3, 140 purified human kinases (Homo sapiens, UniProt O15264); conditions: p38d MAPK
T3 sequence (O15264 1-365): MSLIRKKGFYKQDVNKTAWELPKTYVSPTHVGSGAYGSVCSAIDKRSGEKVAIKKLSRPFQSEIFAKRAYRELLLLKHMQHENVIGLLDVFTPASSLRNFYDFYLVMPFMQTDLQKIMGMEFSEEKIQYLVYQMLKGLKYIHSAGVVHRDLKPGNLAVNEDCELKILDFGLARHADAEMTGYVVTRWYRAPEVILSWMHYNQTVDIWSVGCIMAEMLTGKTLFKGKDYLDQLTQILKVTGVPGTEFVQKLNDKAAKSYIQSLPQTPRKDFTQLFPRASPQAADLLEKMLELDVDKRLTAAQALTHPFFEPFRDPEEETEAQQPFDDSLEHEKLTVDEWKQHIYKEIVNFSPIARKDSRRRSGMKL
Summary of the method: as §1

[9] = molecular target: 140 purified human kinases (Homo sapiens, UniProt Q9NQU5)
Summary of the method: as §1

Chain of 140 purified human kinases (Homo sapiens, UniProt P00519) (P00519 whole entry): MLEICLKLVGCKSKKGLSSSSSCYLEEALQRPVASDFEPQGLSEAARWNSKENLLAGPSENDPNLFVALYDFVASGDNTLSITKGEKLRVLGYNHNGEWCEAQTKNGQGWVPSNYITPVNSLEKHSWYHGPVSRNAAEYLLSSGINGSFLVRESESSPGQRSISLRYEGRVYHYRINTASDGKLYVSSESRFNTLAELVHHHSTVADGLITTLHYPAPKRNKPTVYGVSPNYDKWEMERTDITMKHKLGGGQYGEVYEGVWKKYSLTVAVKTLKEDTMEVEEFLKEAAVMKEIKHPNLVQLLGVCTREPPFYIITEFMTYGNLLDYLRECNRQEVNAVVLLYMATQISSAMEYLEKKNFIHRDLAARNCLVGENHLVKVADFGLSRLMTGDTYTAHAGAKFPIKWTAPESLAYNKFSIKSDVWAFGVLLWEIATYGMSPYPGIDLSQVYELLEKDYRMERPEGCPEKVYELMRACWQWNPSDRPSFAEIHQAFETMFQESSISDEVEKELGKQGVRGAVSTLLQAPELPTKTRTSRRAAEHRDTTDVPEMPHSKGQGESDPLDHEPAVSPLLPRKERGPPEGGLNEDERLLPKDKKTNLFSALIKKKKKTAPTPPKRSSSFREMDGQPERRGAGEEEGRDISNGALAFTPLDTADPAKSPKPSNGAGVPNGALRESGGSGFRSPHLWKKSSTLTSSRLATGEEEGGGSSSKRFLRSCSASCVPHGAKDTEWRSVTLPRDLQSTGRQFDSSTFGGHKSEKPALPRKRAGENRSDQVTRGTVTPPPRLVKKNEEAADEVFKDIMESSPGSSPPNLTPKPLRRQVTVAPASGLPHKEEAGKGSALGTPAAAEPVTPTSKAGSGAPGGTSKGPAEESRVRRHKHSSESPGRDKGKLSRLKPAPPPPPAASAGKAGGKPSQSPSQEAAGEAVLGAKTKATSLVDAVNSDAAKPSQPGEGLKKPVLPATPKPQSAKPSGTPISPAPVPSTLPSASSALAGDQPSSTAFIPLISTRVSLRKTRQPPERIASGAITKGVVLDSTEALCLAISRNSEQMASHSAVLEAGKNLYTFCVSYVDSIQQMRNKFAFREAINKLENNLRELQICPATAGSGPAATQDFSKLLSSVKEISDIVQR
Chain of 140 purified human kinases (Homo sapiens, UniProt Q9BUB5) (Q9BUB5 whole entry): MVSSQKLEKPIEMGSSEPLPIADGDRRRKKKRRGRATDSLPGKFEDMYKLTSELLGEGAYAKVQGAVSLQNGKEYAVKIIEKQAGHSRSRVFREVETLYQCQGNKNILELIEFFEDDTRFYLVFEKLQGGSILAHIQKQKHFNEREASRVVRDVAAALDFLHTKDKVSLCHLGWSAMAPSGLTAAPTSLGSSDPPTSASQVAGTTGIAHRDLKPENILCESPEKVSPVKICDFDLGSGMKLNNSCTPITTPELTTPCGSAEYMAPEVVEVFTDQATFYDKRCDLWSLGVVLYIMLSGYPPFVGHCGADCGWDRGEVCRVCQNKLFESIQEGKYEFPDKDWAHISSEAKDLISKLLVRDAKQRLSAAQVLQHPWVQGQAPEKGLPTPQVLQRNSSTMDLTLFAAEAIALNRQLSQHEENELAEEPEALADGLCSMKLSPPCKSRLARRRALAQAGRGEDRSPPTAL
Chain of 140 purified human kinases (Homo sapiens, UniProt Q13164) (Q13164 whole entry): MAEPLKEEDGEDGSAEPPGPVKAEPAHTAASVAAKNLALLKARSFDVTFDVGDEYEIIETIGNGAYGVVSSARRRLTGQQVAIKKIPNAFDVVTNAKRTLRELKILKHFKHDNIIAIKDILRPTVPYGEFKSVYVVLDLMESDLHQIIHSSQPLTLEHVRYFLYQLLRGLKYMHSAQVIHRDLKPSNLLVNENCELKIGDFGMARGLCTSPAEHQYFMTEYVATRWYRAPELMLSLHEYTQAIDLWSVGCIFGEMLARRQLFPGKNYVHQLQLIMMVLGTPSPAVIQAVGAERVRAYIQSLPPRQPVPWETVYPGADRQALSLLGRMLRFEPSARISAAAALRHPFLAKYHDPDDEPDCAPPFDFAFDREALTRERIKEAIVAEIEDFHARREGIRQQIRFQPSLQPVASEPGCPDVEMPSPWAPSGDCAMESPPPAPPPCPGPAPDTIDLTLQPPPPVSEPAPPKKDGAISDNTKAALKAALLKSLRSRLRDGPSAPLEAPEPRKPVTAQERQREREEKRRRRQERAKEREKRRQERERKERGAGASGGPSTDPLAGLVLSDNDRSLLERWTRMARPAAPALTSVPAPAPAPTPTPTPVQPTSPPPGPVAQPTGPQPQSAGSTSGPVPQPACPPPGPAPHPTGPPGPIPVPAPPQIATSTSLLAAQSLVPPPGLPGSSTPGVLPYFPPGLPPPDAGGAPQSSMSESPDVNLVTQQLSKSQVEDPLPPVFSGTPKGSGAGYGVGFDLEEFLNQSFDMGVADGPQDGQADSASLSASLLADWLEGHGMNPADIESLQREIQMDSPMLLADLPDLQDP
Chain of 140 purified human kinases (Homo sapiens, UniProt P53355) (P53355 whole entry): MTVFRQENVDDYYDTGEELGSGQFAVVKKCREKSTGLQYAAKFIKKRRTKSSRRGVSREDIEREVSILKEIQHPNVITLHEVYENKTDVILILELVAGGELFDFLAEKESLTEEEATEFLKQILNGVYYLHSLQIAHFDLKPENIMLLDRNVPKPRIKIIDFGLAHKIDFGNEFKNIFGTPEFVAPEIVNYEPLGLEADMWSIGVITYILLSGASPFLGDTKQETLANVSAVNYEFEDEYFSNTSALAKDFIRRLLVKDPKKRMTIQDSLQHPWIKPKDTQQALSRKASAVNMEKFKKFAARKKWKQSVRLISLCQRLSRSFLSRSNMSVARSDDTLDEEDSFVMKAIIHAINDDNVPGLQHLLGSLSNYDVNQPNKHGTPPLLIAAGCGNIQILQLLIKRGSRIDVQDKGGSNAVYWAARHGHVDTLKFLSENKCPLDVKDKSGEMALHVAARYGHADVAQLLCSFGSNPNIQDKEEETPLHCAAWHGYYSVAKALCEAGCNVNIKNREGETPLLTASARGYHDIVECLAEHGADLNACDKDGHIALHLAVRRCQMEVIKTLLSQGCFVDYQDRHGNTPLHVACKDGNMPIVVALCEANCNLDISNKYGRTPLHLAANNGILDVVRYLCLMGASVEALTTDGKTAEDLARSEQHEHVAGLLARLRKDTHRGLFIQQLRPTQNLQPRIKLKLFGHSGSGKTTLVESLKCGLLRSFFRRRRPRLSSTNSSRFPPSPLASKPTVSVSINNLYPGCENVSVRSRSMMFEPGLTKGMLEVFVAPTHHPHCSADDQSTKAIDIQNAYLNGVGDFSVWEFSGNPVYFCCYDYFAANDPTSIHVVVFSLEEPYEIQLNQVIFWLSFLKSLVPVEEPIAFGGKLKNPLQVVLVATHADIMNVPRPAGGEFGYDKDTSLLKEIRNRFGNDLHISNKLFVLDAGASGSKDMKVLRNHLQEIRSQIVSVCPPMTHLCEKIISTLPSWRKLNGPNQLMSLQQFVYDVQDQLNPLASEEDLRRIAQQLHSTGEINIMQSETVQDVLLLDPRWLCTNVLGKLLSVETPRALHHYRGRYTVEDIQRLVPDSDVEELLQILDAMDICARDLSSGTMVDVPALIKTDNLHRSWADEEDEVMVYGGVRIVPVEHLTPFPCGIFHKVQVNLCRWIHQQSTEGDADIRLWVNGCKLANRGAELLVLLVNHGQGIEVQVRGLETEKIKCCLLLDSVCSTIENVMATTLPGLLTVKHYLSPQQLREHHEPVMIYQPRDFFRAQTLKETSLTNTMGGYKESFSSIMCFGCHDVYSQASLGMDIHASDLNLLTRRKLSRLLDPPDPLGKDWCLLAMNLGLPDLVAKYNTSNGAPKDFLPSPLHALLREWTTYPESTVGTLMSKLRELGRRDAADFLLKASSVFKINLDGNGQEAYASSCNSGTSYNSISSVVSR
Chain of 140 purified human kinases (Homo sapiens, UniProt Q9Y4K4) (Q9Y4K4 whole entry): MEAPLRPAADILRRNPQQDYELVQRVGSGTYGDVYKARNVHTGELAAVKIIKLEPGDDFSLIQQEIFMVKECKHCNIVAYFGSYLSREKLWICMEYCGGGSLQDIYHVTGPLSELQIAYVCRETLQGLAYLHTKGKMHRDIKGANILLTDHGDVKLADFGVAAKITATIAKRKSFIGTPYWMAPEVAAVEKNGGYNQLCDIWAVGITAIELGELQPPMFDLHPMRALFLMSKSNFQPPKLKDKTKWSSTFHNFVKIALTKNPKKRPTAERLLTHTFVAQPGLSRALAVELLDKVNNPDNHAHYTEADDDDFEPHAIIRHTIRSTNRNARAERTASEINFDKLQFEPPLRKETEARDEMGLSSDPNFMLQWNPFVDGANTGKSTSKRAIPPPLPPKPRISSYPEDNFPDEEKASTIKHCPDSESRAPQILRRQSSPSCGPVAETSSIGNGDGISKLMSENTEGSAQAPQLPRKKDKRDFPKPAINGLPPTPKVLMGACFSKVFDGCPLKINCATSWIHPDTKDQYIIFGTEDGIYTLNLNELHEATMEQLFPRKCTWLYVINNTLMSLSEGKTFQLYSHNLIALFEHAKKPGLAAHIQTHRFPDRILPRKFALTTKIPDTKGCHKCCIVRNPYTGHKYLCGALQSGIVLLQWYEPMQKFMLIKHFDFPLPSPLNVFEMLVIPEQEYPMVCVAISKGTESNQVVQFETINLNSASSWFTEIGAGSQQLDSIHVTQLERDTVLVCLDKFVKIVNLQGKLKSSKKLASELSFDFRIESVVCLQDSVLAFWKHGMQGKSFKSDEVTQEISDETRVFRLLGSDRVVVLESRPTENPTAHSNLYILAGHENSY

[Cu+2].[Cu+2].[Cu+2].c1ccc(-c2csc(NCCN(CCNc3nc(-c4ccccn4)cs3)CCNc3nc(-c4ccccn4)cs3)n2)nc1.c1ccc(-c2csc(NCCN(CCNc3nc(-c4ccccn4)cs3)CCNc3nc(-c4ccccn4)cs3)n2)nc1 [[L2Cu3]6+]
% Inhibition Run 1 ([1]; MNK1): 85.8%
% Inhibition Run 2 ([1]; MNK1): 80.4%
% Inhibition, Mean ([1]; MNK1): 83%
mean % activity ([1]; MNK1): 17%
% activity ([1]; MNK1, Run 1): 14.2%
% activity ([1]; MNK1, Run 2): 19.6%
% Activation, Mean value [2]: 17%
% Inhibition Run 1 [2]: -27.4%
% Inhibition Run 2 [2]: -7.5%
% Inhibition, Mean [2]: -17%
mean % activity [2]: 117%
% activity ([2]; Run 1): 127.4%
% activity ([2]; Run 2): 107.5%
% Activity Run 1 ([2]; 10 µM): 127.40%
% Activity Run 2 ([2]; 10 µM): 107.50%
% Inhibition Run 1 ([3]; IRAK4): 53.9%
% Inhibition Run 2 ([3]; IRAK4): 65.2%
% Inhibition, Mean ([3]; IRAK4): 60%
mean % activity ([3]; IRAK4): 40%
% activity ([3]; IRAK4, Run 1): 46.1%
% activity ([3]; IRAK4, Run 2): 34.8%
% Inhibition Run 1 ([4]; BRSK1): 95.4%
% Inhibition Run 2 ([4]; BRSK1): 93.2%
% Inhibition, Mean ([4]; BRSK1): 94%
mean % activity ([4]; BRSK1): 5.7%
% activity ([4]; BRSK1, Run 1): 4.6%
% activity ([4]; BRSK1, Run 2): 6.8%
% Activity inhibition Mean ([4]; BRSK1, 10 µM): 94.3%
% Activity inhibition Run 1 ([4]; BRSK1, 10 µM): 95.4%
% Activity inhibition Run 2 ([4]; BRSK1, 10 µM): 93.2%
% Activity remaining Run 1 ([4]; BRSK1, 10 µM): 4.60%
% Activity remaining Run 2 ([4]; BRSK1, 10 µM): 6.80%
% Activation, Mean value ([5]; ERK5): 2%
% Inhibition Run 1 ([5]; ERK5): 3%
% Inhibition Run 2 ([5]; ERK5): -7.2%
% Inhibition, Mean ([5]; ERK5): -2%
mean % activity ([5]; ERK5): 102%
% activity ([5]; ERK5, Run 1): 97%
% activity ([5]; ERK5, Run 2): 107.2%
% Inhibition Run 1 ([6]; MAP4K5): 54.5%
% Inhibition Run 2 ([6]; MAP4K5): 51.4%
% Inhibition, Mean ([6]; MAP4K5): 53%
mean % activity ([6]; MAP4K5): 47%
% activity ([6]; MAP4K5, Run 1): 45.5%
% activity ([6]; MAP4K5, Run 2): 48.6%
% Activation, Mean value ([7]; DAPK1): 1.5%
% Inhibition Run 1 ([7]; DAPK1): 6.2%
% Inhibition Run 2 ([7]; DAPK1): -9.2%
% Inhibition, Mean ([7]; DAPK1): -1.5%
mean % activity ([7]; DAPK1): 102%
% activity ([7]; DAPK1, Run 1): 93.8%
% activity ([7]; DAPK1, Run 2): 109.2%
% Activation, Mean value [8]: 14%
% Inhibition Run 1 [8]: -9.9%
% Inhibition Run 2 [8]: -17.9%
% Inhibition, Mean [8]: -14%
mean % activity [8]: 114%
% activity ([8]; Run 1): 109.9%
% activity ([8]; Run 2): 117.9%
% Activity Run 1 ([8]; 10 µM): 109.90%
% Activity Run 2 ([8]; 10 µM): 117.90%
% Inhibition Run 1 ([9]; PAK6): 49.1%
% Inhibition Run 2 ([9]; PAK6): 47.9%
% Inhibition, Mean ([9]; PAK6): 49%
mean % activity ([9]; PAK6): 52%
% activity ([9]; PAK6, Run 1): 50.9%
% activity ([9]; PAK6, Run 2): 52.1%

CC(=O)[O-].CC(=O)[O-].CC(=O)[O-].CC(=O)[O-].CC(=O)[O-].CC(=O)[O-].[Zn+2].[Zn+2].[Zn+2].c1ccc(-c2csc(NCCN(CCNc3nc(-c4ccccn4)cs3)CCNc3nc(-c4ccccn4)cs3)n2)nc1.c1ccc(-c2csc(NCCN(CCNc3nc(-c4ccccn4)cs3)CCNc3nc(-c4ccccn4)cs3)n2)nc1 [[L2Zn3]6+]
% Activation, Mean value ([1]; MNK1): 14%
% Inhibition, Mean ([1]; MNK1): -14%
% Inhibition, Run 1 / Run 2 ([1]; MNK1): -12% and -15%
mean % activity ([1]; MNK1): 114%
% Activity Run 1 ([1]; MNK1, 10 µM): 112.0%
% Activity Run 2 ([1]; MNK1, 10 µM): 115.0%
% activity ([1]; MNK1, duplicate runs): 112% and 115%
% Inhibition, Mean [2]: 9%
mean % activity [2]: 91%
% activity ([2]; duplicate runs): 81% and 100%
% Inhibition, Mean ([3]; IRAK4): 10%
% Inhibition, Run 1 / Run 2 ([3]; IRAK4): 13% and 7%
mean % activity ([3]; IRAK4): 90%
% activity ([3]; IRAK4, duplicate runs): 87% and 93%
% Inhibition, Mean ([4]; BRSK1): 32%
% Inhibition, Run 1 / Run 2 ([4]; BRSK1): 39% and 26%
mean % activity ([4]; BRSK1): 68%
% activity ([4]; BRSK1, duplicate runs): 62% and 74%
% Inhibition, Mean ([5]; ERK5): 16%
mean % activity ([5]; ERK5): 84%
% activity ([5]; ERK5, duplicate runs): 65% and 104%
% Inhibition, Mean ([6]; MAP4K5): 60%
% Inhibition, Run 1 / Run 2 ([6]; MAP4K5): 60% and 59%
mean % activity ([6]; MAP4K5): 40%
% activity ([6]; MAP4K5, duplicate runs): 40% and 41%
% Activation, Mean value ([7]; DAPK1): 16%
% Inhibition, Mean ([7]; DAPK1): -16%
% Inhibition, Run 1 / Run 2 ([7]; DAPK1): -12% and -21%
mean % activity ([7]; DAPK1): 116%
% Activity Run 1 ([7]; DAPK1, 10 µM): 112.0%
% Activity Run 2 ([7]; DAPK1, 10 µM): 121.0%
% activity ([7]; DAPK1, duplicate runs): 112% and 121%
% Activation, Mean value [8]: 4.4%
% Inhibition, Mean [8]: -4.4%
% Inhibition, Run 1 / Run 2 [8]: -6% and -2.8%
mean % activity [8]: 104%
% activity ([8]; duplicate runs): 106% and 103%
% Inhibition, Mean ([9]; PAK6): 27%
mean % activity ([9]; PAK6): 73%
% activity ([9]; PAK6, duplicate runs): 63% and 83%
